Laboratory results from the supplement of paper PMC10307832.

Key:
Experiment in all cases: relative viability (nuclei count vs DMSO), 5 days (fraction); higher = more cells survive
Motesanib + Foretinib = compound: CC1(C)CNc2cc(NC(=O)c3cccnc3NCc3ccncc3)ccc21 [Motesanib] + COc1cc2c(Oc3ccc(NC(=O)C4(C(=O)Nc5ccc(F)cc5)CC4)cc3F)ccnc2cc1OCCCN1CCOCC1 [Foretinib] (partner 0.25 µM)
How it was run: (§1)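 A single step with final 0.05% Triton X-100, 1% formaldehyde and 1 ug/ml Hoechst fixed the cells and stained nuclei 5 days after treatment. Lung cancer cell lines in 1536-well plates had been treated by pin tool the day after seeding with one drug alone or a fixed anchor-drug dose plus five library-drug doses (not always all listed) in √10 steps, and nuclei were counted on 4× images. Relative viability is the ratio of nuclei in treated wells to nuclei in vehicle wells, taken as the median of duplicate plates.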

[1] = compound: C[C@@]1(C(=O)Nc2ccc(F)nc2)CCCN1c1nc(Nc2cc(C3CC3)n[nH]2)c2cccn2n1 + Nc1ncn([C@H]2C[C@H](O)[C@@H](CO)O2)c(=O)n1 [Decitabine] (partner 2 µM)
How it was run: as §1

[2] = compound: C[C@@]1(C(=O)Nc2ccc(F)nc2)CCCN1c1nc(Nc2cc(C3CC3)n[nH]2)c2cccn2n1 + CC1(C)CCC(c2ccc(Cl)cc2)=C(CN2CCN(c3ccc(C(=O)NS(=O)(=O)c4ccc(N[C@H](CCN5CCOCC5)CSc5ccccc5)c(S(=O)(=O)C(F)(F)F)c4)cc3)CC2)C1 [Navitoclax] (partner 0.5 µM)
How it was run: as §1

Motesanib + Decitabine = compound: CC1(C)CNc2cc(NC(=O)c3cccnc3NCc3ccncc3)ccc21 [Motesanib] + Nc1ncn([C@H]2C[C@H](O)[C@@H](CO)O2)c(=O)n1 [Decitabine] (partner 2 µM)
How it was run: as §1

| Cell Line | relative viability (Motesanib + Foretinib; first compound 0.01 µM) | relative viability (Motesanib + Foretinib; first compound 0.03162 µM) | relative viability (Motesanib + Foretinib; first compound 0.1 µM) | relative viability (Motesanib + Foretinib; first compound 0.3162 µM) | relative viability (Motesanib + Foretinib; first compound 1 µM) | relative viability ([1]; first compound 0.04 µM) | relative viability ([1]; first compound 0.1265 µM) | relative viability ([1]; first compound 0.4 µM) | relative viability ([1]; first compound 1.265 µM) | relative viability ([2]; first compound 0.04 µM) | relative viability ([2]; first compound 0.1265 µM) | relative viability ([2]; first compound 0.4 µM) | relative viability ([2]; first compound 1.265 µM) | relative viability (Motesanib + Decitabine; first compound 0.01 µM) | relative viability (Motesanib + Decitabine; first compound 0.03162 µM) | relative viability (Motesanib + Decitabine; first compound 0.1 µM) | relative viability (Motesanib + Decitabine; first compound 0.3162 µM) | relative viability (Motesanib + Decitabine; first compound 1 µM) |
| --- | --- | --- | --- | --- | --- | --- | --- | --- | --- | --- | --- | --- | --- | --- | --- | --- | --- | --- |
| 201T | 1.09 | 1.1 | 0.997 | 1.13 | 1.1 | 0.813 | 0.714 | 0.671 | 0.862 | 1.15 | 1.09 | 1.11 | 1.16 | 0.84 | 0.864 | 0.925 | 0.939 | 0.93 |
| A549 | 0.88 | 0.942 | 1.02 | 0.944 | 1.03 | 0.284 | 0.248 | 0.326 | 0.199 | 0.95 | 0.902 | 0.742 | 0.688 | 0.261 | 0.216 | 0.327 | 0.278 | 0.338 |
| A-427 | 1.04 | 1.05 | 1.06 | 1.16 | 1.23 | 0.514 | 0.413 | 0.489 | 0.501 | 0.885 | 0.988 | 1.03 | 0.915 | 0.563 | 0.554 | 0.544 | 0.568 | 0.556 |
| ABC-1 | 1.1 | 1.06 | 1.04 | 1.05 | 1.2 | 1.01 | 0.714 | 0.628 | 0.785 |  |  |  |  | 0.825 | 1.03 | 1.02 | 0.931 | 1.26 |
| BEN | 0.627 | 0.55 | 0.739 | 0.572 | 0.992 | 0.702 | 0.583 | 0.737 | 0.562 | 0.0599 | 0.0547 | 0.0804 | 0.0539 | 0.599 | 0.788 | 0.779 | 0.693 | 0.867 |
| CAL-12T | 1.13 | 1.19 | 1.2 | 1.19 | 1.12 |  |  |  |  | 1.18 | 1.16 | 1.14 | 1.06 |  |  |  |  |  |
| COR-L23 | 0.993 | 1.06 | 0.992 | 0.964 | 0.955 | 0.413 | 0.412 | 0.315 | 0.267 | 1.02 | 1.06 | 0.821 | 0.681 | 0.477 | 0.456 | 0.491 | 0.468 | 0.519 |
| COR-L 105 | 1.2 | 1.03 | 1.16 | 0.821 | 1.42 | 0.697 | 0.547 | 0.541 | 0.588 | 0.788 | 0.477 | 0.65 | 0.607 | 0.643 | 0.683 | 0.72 | 0.739 | 0.705 |
| Calu-6 | 0.953 | 0.921 | 0.851 | 0.884 | 0.826 |  |  |  |  | 0.83 | 0.637 | 0.62 | 0.141 |  |  |  |  |  |
| ChaGo-K-1 | 0.933 | 0.894 | 0.861 | 1.1 | 1.01 | 0.511 | 0.52 | 0.499 | 0.503 | 0.917 | 0.616 | 1.06 | 0.673 | 0.506 | 0.556 | 0.544 | 0.661 | 0.607 |
| EBC-1 | 0.1 | 0.0945 | 0.109 | 0.111 | 0.132 |  |  |  |  | 0.342 | 0.315 | 0.315 | 0.197 |  |  |  |  |  |
| EKVX | 0.744 | 0.902 | 0.743 | 0.82 | 0.921 | 0.29 | 0.246 | 0.357 | 0.288 | 0.944 | 0.728 | 0.785 | 0.593 | 0.385 | 0.404 | 0.427 | 0.401 | 0.32 |
| EMC-BAC-2 | 1.01 | 1.06 | 1.1 | 1.05 | 1.03 | 0.709 | 0.737 | 0.578 | 0.717 | 1.13 | 1.12 | 0.947 | 1.22 | 0.956 | 0.979 | 1.01 | 0.984 | 1.04 |
| EPLC-272H | 0.659 | 0.744 |  | 0.663 | 0.799 | 0.348 | 0.306 | 0.279 | 0.336 | 1.07 | 1.04 | 1.07 | 1.21 | 0.37 | 0.371 | 0.387 | 0.335 | 0.402 |
| H3255 | 0.837 | 0.762 | 0.889 | 0.791 | 0.976 | 0.587 | 0.622 | 0.521 | 0.65 | 0.684 | 0.463 | 0.49 | 0.36 | 0.561 | 0.651 | 0.605 | 0.623 | 0.678 |
| HARA | 0.94 | 0.801 | 0.906 | 0.915 | 0.881 | 0.445 | 0.436 | 0.418 | 0.513 | 1.16 | 1.18 | 1.17 | 1.16 | 0.492 | 0.878 | 0.905 | 1.06 | 1.05 |
| HCC-15 | 0.984 | 0.838 | 1.01 | 1.17 | 1.11 | 0.48 | 0.375 | 0.43 | 0.311 | 0.663 | 0.561 | 0.528 | 0.58 | 0.592 | 0.621 | 0.648 | 0.81 | 0.69 |
| HCC-44 |  |  |  |  |  | 0.957 | 0.949 | 0.811 | 0.84 | 0.804 | 0.884 | 0.68 | 0.903 | 0.972 | 0.952 | 0.932 | 1.07 | 0.932 |
| HCC-78 | 0.665 | 0.637 | 0.507 | 0.514 | 0.678 | 0.624 | 0.564 | 0.587 | 0.394 | 0.7 | 0.505 | 0.308 | 0.268 | 0.657 | 0.654 | 0.808 |  | 0.817 |
| HCC-366 | 0.955 | 0.932 | 0.952 | 0.883 | 1.02 | 0.315 | 0.292 | 0.265 | 0.265 | 1.12 | 0.966 | 0.688 | 1.19 | 0.381 | 0.439 | 0.416 | 0.397 | 0.635 |
